From patent US5124253A (Medisense, Inc., priority 1988, dated 1992)
Where “and” joins values, the source holds several entries; their conditions need not be identical. Identical values can stand only once.

Columns and labels:
[1] = cyclic voltammetry of substrate and product; format: physicochemical
Excerpt: Typically, in the test element, the enzyme and the substrate are in separate carbon-based layers. The respective carbon mixtures are applied to a conductive track of a support, for example in the close proximity of a reference electrode mixture connected to a second track. In this way, a miniaturized sensor is produced which is capable of working with a small sample of blood bridging the electrode areas. The mixtures are suitably applied by screen printing. Suitable enzymes and suitable substrates can be determined by routine experimentation. Bovine liver alkaline phosphatase is the preferred enzyme, and p-aminophenyl phosphate is the preferred substrate. Other candidate substrates include, for example naphthyl phosphate, and 4-ferrocenylaminophenyl phosphate. […] Furthermore the electrochemistry of p-aminophenol is in a potential region where there would be minimal interference from endogenous blood components.
Cyclic voltammograms of p-aminophenyl phosphate before and after incubation with alkaline phosphatase are shown in FIGS. 3 and 4, the lower voltammogram corresponding to post-incubation.

[2] = system: bovine liver alkaline phosphatase; settings: particularly isozyme from bovine liver; cited from earlier work
[3] = cited from earlier work

In the case of Nc1ccc(O)cc1 [p-aminophenol], the “E°' of reversible wave” value [1] is reported as “about -65 mV”.
In the case of Cn1c(=O)c2[nH]cnc2n(C)c1=O [theophylline], the “inhibition of alkaline phosphatase isozymes” value [2] is listed as “very potent inhibitor” and the “levels encountered in cases of toxicity” value [3] is listed as ≤ 60 μg/ml and ≤ 330 μM.
